Where “and” joins values, the source holds several entries; their conditions need not be identical. Equal values may be shown once.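 Step 1: Grow cells in 96-well plates. Step 2: Expose to compound for 48 hours at 5 concentrations. Step 3: Interpolate endpoints linearly; if unreached, use highest concentration. GI50: concentration for 50% inhibition of growth. TGI denotes the concentration required for complete inhibition of growth.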
Assays:
Test in all cases: NCI-60 cell line screen, 48 h
CCRF-CEM leukemia = system: CCRF-CEM leukemia
DU-145 prostate = system: DU-145 prostate
HCT-116 colon = system: HCT-116 colon
HT29 colon = system: HT29 colon
MCF7 breast = system: MCF7 breast
SF-295 CNS = system: SF-295 CNS
SF-539 CNS = system: SF-539 CNS
SK-MEL-28 melanoma = system: SK-MEL-28 melanoma
SNB-75 CNS = system: SNB-75 CNS
UACC-62 melanoma = system: UACC-62 melanoma

Structure (SMILES)	GI50 (CCRF-CEM leukemia)	TGI (CCRF-CEM leukemia)	GI50 (DU-145 prostate)	TGI (DU-145 prostate)	GI50 (HCT-116 colon)	TGI (HCT-116 colon)	GI50 (HT29 colon)	TGI (HT29 colon)	GI50 (MCF7 breast)	TGI (MCF7 breast)	GI50 (SF-295 CNS)	TGI (SF-295 CNS)	GI50 (SF-539 CNS)	TGI (SF-539 CNS)	GI50 (SK-MEL-28 melanoma)	TGI (SK-MEL-28 melanoma)	GI50 (SNB-75 CNS)	TGI (SNB-75 CNS)	GI50 (UACC-62 melanoma)	TGI (UACC-62 melanoma)
COc1cc(-c2nn(-c3cccc(NC(=O)Nc4ccc(Cl)c(C(F)(F)F)c4)c3)cc2-c2ccncc2)ccc1Cl	0.979 µM	> 32.5 µM	1.5 µM	> 32.5 µM	1.17 µM	4.56 µM	1.19 µM	4.45 µM	0.919 µM	> 32.5 µM	0.84 µM	2.54 µM	1.66 µM	6.34 µM	1.2 µM	5.01 µM	1.28 µM	10.3 µM	0.738 µM	2.09 µM
Cc1ccc2c(C(C[N+](=O)[O-])c3ccccc3)c(-c3ccccc3)[nH]c2c1 (centres undefined)	25.2 µM	> 95 µM	34 µM	> 95 µM	30.2 µM	> 95 µM	20.9 µM	> 95 µM	13.5 µM	> 95 µM	36.7 µM	> 95 µM	22.8 µM	> 95 µM	> 95 µM	> 95 µM	2.87 µM	43.6 µM	14.1 µM	> 95 µM
COC(=O)/C=C1/SC(=Nc2cccc(Cl)c2)N(CCc2c[nH]c3ccc(O)cc23)C1=O	0.931 µM	5.27 µM	1.86 µM	4.81 µM	1.18 µM	2.71 µM	1.87 µM	3.57 µM	1.69 µM	4.73 µM	1.85 µM	4.15 µM	1.63 µM	3.24 µM	1.69 µM	3.33 µM	2.11 µM	5.1 µM	1.68 µM	3.47 µM
CCCc1nn(C)c2c(=O)[nH]c(-c3cc(S(=O)(=O)N4CCN(C)CC4)ccc3OCC)nc12	> 100 µM	> 100 µM	> 100 µM	> 100 µM	> 100 µM	> 100 µM	> 100 µM	> 100 µM	> 100 µM	> 100 µM	> 100 µM	> 100 µM	> 100 µM	> 100 µM	> 100 µM	> 100 µM	53.2 µM	> 100 µM	> 100 µM	> 100 µM
CC1(C)N=C(N)N=C(N)N1c1ccc(CNC(=O)Nc2ccc(S(=O)(=O)F)c(Cl)c2)c(Cl)c1	0.477 µM	> 100 µM	0.76 µM	> 100 µM	0.379 µM	> 100 µM	0.195 µM	> 67.3 µM	0.536 µM	> 100 µM	5.41 µM	> 100 µM	1.11 µM	25 µM	4.35 µM	> 100 µM	3.47 µM	> 100 µM	0.303 µM	> 100 µM
CN1C(=O)CCC(N2C(=O)c3cccc(NCCOCCOCCNC(=O)c4cc5c(o4)C(=O)c4ccccc4C5=O)c3C2=O)C1=O (centres undefined)	3.75 µM	24.4 µM	1.5 µM	2.89 µM	2.17 µM	6.21 µM	2.66 µM	6.98 µM	1.46 µM	3.54 µM	1.66 µM	3.08 µM	1.63 µM	3.02 µM	2.04 µM	4.27 µM	2.74 µM	4.72 µM	1.04 µM	2.35 µM
COc1ccc(Br)cc1NC(=O)Nc1cccc2c1ccn2Cc1ccnc(N)c1	3.92 µM and 5.43 µM	40 µM and > 10 µM	7.86 µM and > 10 µM	37.9 µM and > 10 µM	5.85 µM and 5.75 µM	19.5 µM and > 10 µM	2.59 µM and 2.24 µM	8.09 µM and > 10 µM	3.82 µM and 5.69 µM	20.7 µM and > 10 µM	3.69 µM and 3.61 µM	17.6 µM and > 10 µM	3.34 µM and 2.38 µM	19.3 µM and > 10 µM	11.5 µM and > 10 µM	24.8 µM and > 10 µM	2.19 µM and 5.1 µM	42.8 µM and > 10 µM	6.17 µM and 5.94 µM	21.7 µM and > 10 µM
CC1SC(c2ccccc2Cl)N(NC(=O)C(O)c2ccccc2)C1=O (centres undefined)	> 100 µM	> 100 µM	> 100 µM	> 100 µM	96.1 µM	> 100 µM	> 100 µM	> 100 µM	54.6 µM	> 100 µM	32.4 µM	> 100 µM	> 100 µM	> 100 µM	> 100 µM	> 100 µM	> 100 µM	> 100 µM	45 µM	> 100 µM
O=c1cc(-c2ccc(F)cc2)[nH]c2ncccc12		> 100 µM		> 100 µM	42.9 µM	> 100 µM		> 100 µM		> 100 µM	50 µM	> 100 µM		> 100 µM		> 100 µM		81.1 µM		> 100 µM
Cc1cc2c(F)c(Oc3ncnc(Nc4ccc(N5C[C@@H](C)N[C@@H](C)C5)cc4)c3C#N)cc(F)c2[nH]1	1.64 µM	9.16 µM	3.31 µM	11.1 µM	1.69 µM	3.2 µM	0.583 µM	2.49 µM	1.7 µM	4.29 µM	1.95 µM	3.94 µM	1.53 µM	2.94 µM	1.96 µM	3.7 µM	1.1 µM	3.18 µM	2.37 µM	4.89 µM
COc1nc(N)nc2c1ncn2C1CC(O)C(CO)O1 (centres undefined)		> 100 µM		> 100 µM		> 100 µM		> 100 µM		> 100 µM		> 100 µM		> 100 µM		> 100 µM		> 100 µM		> 100 µM
O=C(O)c1cccc(S(=O)(=O)NCCO)c1		> 100 µM		> 100 µM		> 100 µM		> 100 µM		> 100 µM		> 100 µM		> 100 µM		> 100 µM		> 100 µM		> 100 µM
Cc1c(CN2CCN(C(=O)[C@H](C)O)CC2)sc2c(N3CCOCC3)nc(-c3cnc(N)nc3)nc12	1.11 µM and 0.322 µM	> 100 µM	0.424 µM and 0.244 µM	> 100 µM	0.634 µM and 0.252 µM	> 40.1 µM	0.207 µM and 0.174 µM	> 56.8 µM	0.0428 µM and 0.0379 µM	> 100 µM	0.131 µM and 0.0822 µM	1.72 µM and 0.529 µM	0.388 µM and 0.222 µM	2.27 µM and 0.875 µM	0.247 µM and 0.138 µM	5.43 µM and 0.708 µM	0.0317 µM and 0.0235 µM	0.67 µM and 0.255 µM	0.1 µM and 0.11 µM	0.917 µM and 0.467 µM
NC(=O)c1cc(N2CC2)c([N+](=O)[O-])cc1[N+](=O)[O-]	> 200 µM	> 200 µM		> 200 µM	> 200 µM	> 200 µM	> 200 µM	> 200 µM		> 63.2 µM	> 200 µM	> 200 µM	> 200 µM	> 200 µM		> 200 µM	> 200 µM	> 200 µM	> 200 µM	> 200 µM
O=C(c1c(F)c(F)c(F)c(F)c1F)c1c(F)c(F)c(F)c(F)c1F		1.15 µM		4.64 µM		2.96 µM		3.08 µM		2.58 µM		6.44 µM		2.69 µM		7.92 µM		3.48 µM		3.97 µM
COc1cnc2c(c1)C(=O)c1c-2n(CCCN2CCCC2)c(=O)c2cc([N+](=O)[O-])ccc12	< 0.01 µM	3.77 µM	0.0186 µM	1.79 µM	< 0.01 µM	0.144 µM	0.0202 µM	1.37 µM	< 0.01 µM	1.46 µM	< 0.01 µM	0.215 µM	0.0308 µM	0.353 µM	10.6 µM	27.9 µM	0.0457 µM	14.3 µM	0.0153 µM	0.631 µM
CCN1CCN(CCNc2nccc(-c3c(-c4ccc(F)c(O)c4)nc4occn34)n2)S1(=O)=O	2.2 µM	> 100 µM	3.75 µM	> 100 µM	3.76 µM	> 100 µM	4.2 µM	> 100 µM	3.82 µM	> 100 µM	5.27 µM	> 100 µM	> 100 µM	> 100 µM	5.68 µM	> 100 µM	3.65 µM	> 100 µM	1.5 µM	6.56 µM
COc1cc(-n2ccnc2-c2ccc3ccccc3c2)cc(OC)c1OC	0.136 µM	> 100 µM	0.175 µM	17.5 µM	0.0382 µM	15.3 µM	< 0.0222 µM	> 37.6 µM	< 0.0199 µM	> 45.8 µM	0.0363 µM	42.5 µM	0.099 µM	2.06 µM	0.688 µM	38.3 µM	0.123 µM	36.8 µM	0.0657 µM	15.4 µM
C(=N\Nc1ncc(-c2cc3cc4c(cc3o2)OCO4)s1)/c1ccco1	0.551 µM	16.2 µM	2.02 µM	5.49 µM	1.57 µM	4.03 µM	2.99 µM	7.62 µM	0.683 µM	7.18 µM	2.78 µM	11.5 µM	1.58 µM	3.96 µM	3.42 µM	12.3 µM	1.86 µM	11.4 µM	3.81 µM	14.5 µM
COC[C@H](NC(=O)c1cnc(C)s1)C(=O)N[C@@H](COC)C(=O)N[C@@H](Cc1ccccc1)C(=O)[C@@]1(C)CO1	21.3 µM	> 100 µM	37.1 µM	> 100 µM	9.27 µM	32.6 µM	21.1 µM	> 75.7 µM	11.1 µM	> 100 µM	20.1 µM	72.7 µM	27.7 µM	> 74.1 µM	27.5 µM	> 95.1 µM	22.3 µM	> 100 µM	15.8 µM	39 µM
CC(=O)O.CN1[CH-]N(Cc2ccc(C#N)cc2)c2ccccc21.[Ag+]	22.2 µM	61.1 µM	17.7 µM	32.6 µM	18.5 µM	42.4 µM	21.6 µM	44.4 µM	17.8 µM	51.7 µM	82.3 µM	> 100 µM	43.7 µM	> 100 µM	16.7 µM	32.1 µM	20.6 µM	68.9 µM	16.4 µM	31 µM
O=C1c2ccccc2C(=O)N1CCc1ncc(-c2ccccc2)[nH]1		> 100 µM		> 100 µM		> 100 µM		> 100 µM		> 100 µM		> 100 µM		> 100 µM		> 100 µM		> 100 µM		> 100 µM
COc1ccc(Nc2nc(NCCNc3ccnc4cc(Cl)ccc34)nc(N3CCOCC3)n2)cc1	2.95 µM	15.4 µM	9.8 µM	21.9 µM	3.01 µM	14.8 µM	1.07 µM	3.75 µM	2.86 µM	12.8 µM	2.05 µM	3.92 µM	2.18 µM	7.54 µM	1.81 µM	3.28 µM	2.09 µM	8.73 µM	1.85 µM	3.59 µM
NCCCCC(NC(=O)C(N)CCCN=C(N)N)C(=O)NC(CCCCN)C(=O)NC(CCCN=C(N)N)C(=O)NC(CCCN=C(N)N)C(=O)NC(CCC(N)=O)C(=O)NC(CCCN=C(N)N)C(=O)NC(CCCN=C(N)N)C(=O)NC(CCCN=C(N)N)C(=O)NCC(=O)NCC(=O)O (centres undefined)	1.53 µM	8.52 µM	> 50 µM	> 50 µM	> 50 µM	> 50 µM	> 50 µM	> 50 µM	> 50 µM	> 50 µM	> 50 µM	> 50 µM	> 50 µM	> 50 µM	> 50 µM	> 50 µM	> 50 µM	> 50 µM	> 50 µM	> 50 µM
OC1CC2CCC(C1)N2CCCN1c2ccccc2Sc2ccc(Cl)cc21 (centres undefined)		4.23 µM		9.35 µM		3.64 µM		3.63 µM		3.3 µM		3.67 µM		3.89 µM		3.69 µM		5.23 µM		3.39 µM
CCOC(=O)c1ccc(-n2cnc(-c3ccc([N+](=O)[O-])cc3)c2)cc1		> 100 µM		> 100 µM		> 100 µM		> 100 µM		> 100 µM		> 100 µM		> 100 µM		> 100 µM		> 100 µM		> 100 µM

Reference: PubChem BioAssay (NCI)
